Here are results for 2 compounds from publication PMC5361811, “Inhibition of human endogenous retrovirus-K by antiretroviral drugs” (Retrovirology, 2017).

The test system of the test is T1, HERV-K protease.
T1 construct: gene pro; retroviral aspartic protease of consensus HERV-K genome (from Gag-Pro-Pol polyprotein; synthetic, plasmid pCD-HK/Rev), acting in transfected HeLa or 293 cells and virions; homodimer by homology
The experiment in a line: virus production in transfected HeLa cells, RT activity in supernatant by PERT. Type of test: cell-based. The following applies: Homo sapiens, read-out: HERV-K IC50 (μM). From the text: virus production in transfected HeLa cells, RT activity in supernatant by PERT on HERV-K protease

Turning to `CC(C)CN(C[C@@H](O)[C@H](Cc1ccccc1)NC(=O)O[C@H]1CO[C@H]2OCC[C@H]21)S(=O)(=O)c1ccc(N)cc1` [Darunavir], the IC50 (usually the midpoint of a concentration-inhibition curve) was determined as 0.029 µM.
The figure for `Cc1cccc(C)c1OCC(=O)N[C@@H](Cc1ccccc1)[C@@H](O)C[C@H](Cc1ccccc1)NC(=O)[C@H](C(C)C)N1CCCNC1=O` [Lopinavir] is 0.034 µM.
